# Structures can show the parent of a compound that is named as a salt.
# Tested on: PDE IV
# Experiment: Inhibition of PDE IV activity
# Format: biochemical
# Details: method of Bauer and Schwabe adapted to microtiter plates
# Procedure: The activity test was carried out according to the method of Bauer and Schwabe, which was adapted to microtiter plates (Naunyn-Schmiedeberg's Arch. Pharmacol. 311, 193-198, 1980). In this test, the PDE reaction takes place in the first step. In a second step, the charged 5'-nucleotide is cleaved to give the uncharge nucleoside by a 5'-nucleotidase of the snake veno of Ophiophagus hannah (king cobra). In the third step, the nucleoside is separated from the remaining charged substrate on ion exchange columns. The columns are eluted directly into minivials using 2 ml of 30 mM ammonium formate (pH 6.0) to which a further 2 ml of scintillator fluid is added for counting.
# The inhibitory values determined for the compounds according to the invention result from Table 1 which follows, in which the numbers of the compounds correspond to the numbers of the examples.
smiles,measurement,value
"COc1ccc(-c2csc(-c3cccnc3)n2)c2c1OC1(CCCC1)C2 [Compound 1, 3-[4-(2,3-Dihydro-7-methoxybenzofuran-2-spiro-1'-cyclopentan-4-yl)thiazol-2-yl]pyridine]",-log IC50,7.74
"COc1ccc(-c2csc(-c3ccncc3)n2)c2c1OC1(CCCC1)C2 [Compound 2, 4-[4-(2,3-Dihydro-7-methoxybenzofuran-2-spiro-1'-cyclopentan-4-yl)thiazol-2-yl]pyridine]",-log IC50,7.25
"CCOC(=O)c1cc(-c2nc(-c3ccc(OC)c4c3CC3(CCCC3)O4)cs2)ccn1 [Compound 3, Ethyl 4-[4-(2,3-Dihydro-7-methoxybenzofuran-2-spiro-1'-cyclopentan-4-yl)thiazol-2-yl]pyridine-2-carboxylate]",-log IC50,7.22
"COc1ccc(-c2csc(-c3ccnc(C(=O)O)c3)n2)c2c1OC1(CCCC1)C2 [Compound 4, 4-[4-(2,3-Dihydro-7-methoxybenzofuran-2-spiro-1'-cyclopentan-4-yl)thiazol-2-yl]pyridine-2-carboxylic acid semihydrochloride]",-log IC50,6.85
"COc1ccc(-c2csc(-c3cccc(C(=O)O)c3)n2)c2c1OC1(CCCC1)C2 [Compound 5, 3-[4-(2,3-Dihydro-7-methoxybenzofuran-2-spiro-1'-cyclopentan-4-yl)thiazol-2-yl]benzoic acid]",-log IC50,7.79
